Data reported in patent publication US11382894B2, “Pharmaceutical compositions for use in the treatment of cardiovascular calcification” (INSERM (INSTITUT NATIONAL DE LA SANTE ET DE LA RECHERCHE …, priority 2017, dated 2022).

Assays:
[1] = test system: Human valvular interstitial cells (VICs); experiment: Calcium content of human valvular interstitial cells cultured in procalcifying conditions (O-Cresolphthalein colorimetric assay); format: cell-based; conditions: Pi 3 mM; for VICs calcium content: mean±SEM; for Effect on calcium content of valvular interstitial cells (in words): procalcifying conditions
Method: (§1) Materials and methods: Human valvular interstitial cells (VICs) were cultured in procalcifying conditions using inorganic phosphate (Pi: 3 mM) for 14 days. N-acetyl-S-farnesyl-L-cysteine (AFC)—sEH phosphatase domain inhibitor—was added at concentrations, ranging from 0.1 to 5 μM (n=5-6 per group). VICs aortic calcium content was determined using a calcium colorimetric assay with O-Cresolphthalein.
as §1, with “10” for “14”, “Ebselen—sEH” for “N-acetyl-S-farnesyl-L-cysteine (AFC)—sEH”, “the concentrations of” for “concentrations, ranging from”, “and 1” for “to 5”, “(n=4” for “(n=5-6”

Rat aortic rings = experiment: Calcium content of rat aortic rings cultured ex vivo in procalcifying conditions (O-Cresolphthalein colorimetric assay); format: cell-based; conditions: Pi 3.8 mM, 7 days; for Effect on calcium content of rat aortas (in words): procalcifying conditions; for Aortic calcium content: Pi alone = 100%
Method: Materials and methods: Rat aortic rings were cultured in procalcifying conditions using inorganic phosphate (Pi: 3.8 mM) for 7 days. […] Rat aortic calcium content was determined using a calcium colorimetric assay with O-Cresolphthalein.
as §1, with “Rat aortic rings” for “Human valvular interstitial cells (VICs)”, “3.8” for “3”, “7” for “14”, “10” for “5”, “(n=4-21” for “(n=5-6”, “Rat” for “VICs”
Materials and methods: Rat aortic rings were cultured in procalcifying conditions using inorganic phosphate (Pi: 3.8 mM) for 7 days in absence and in presence of ebselen at a concentration of 1 and 10 μM (n=6-8 per group).

[2] = rat aortic rings, compound 1 μM
[3] = rat aortic rings, compound 10 μM

Question: CC(=O)N[C@@H](CSC/C=C(\C)CC/C=C(\C)CCC=C(C)C)C(=O)O [AFC, N-acetyl-S-farnesyl-L-cysteine] was tested. Which “Alizarin Red staining” value ([1]; human VICs, 14 days) did it give?
Answer: Its value is “confirmed these results”.

Question: What about the VICs calcium content ([1]; human VICs, 14 days, compound 0.1 μM, Pi alone 90.3±4.6 μg) of the same compound?
Answer: Its VICs calcium content is 76.7 ± 5.7 µg.

Question: What about the VICs calcium content ([1]; human VICs, 14 days, compound 1 μM, Pi alone 90.3±4.6 μg) of the same compound?
Answer: The VICs calcium content was 51.1 ± 2.9 µg.

Question: What about the VICs calcium content ([1]; human VICs, 14 days, compound 5 μM, Pi alone 90.3±4.6 μg) of the same compound?
Answer: Its VICs calcium content is 45.8 ± 2 µg.

Question: And the “Effect on calcium content of valvular interstitial cells (in words)” value ([1]; 14 days)?
Answer: The value was “dose-dependently reduces”.

Question: What about the “Effect on calcium content of rat aortas (in words)” value (Rat aortic rings) of the same compound?
Answer: Its value is “dose-dependently reduces”.

Question: What about the “Alizarin Red and VonKossa histochemical staining” value (Rat aortic rings; rat aortic rings) of the same compound?
Answer: Its value is “confirmed these results”.

Question: And the Aortic calcium content (Rat aortic rings; rat aortic rings, compound 0.1 μM)?
Answer: Its Aortic calcium content is 83.6±9.1%.

Question: And the Aortic calcium content (Rat aortic rings; [2])?
Answer: The Aortic calcium content was 74.2±2.9%.

Question: What about the Aortic calcium content (Rat aortic rings; [3]) of the same compound?
Answer: The Aortic calcium content was 54.5±12%.

Question: How did the VICs calcium content ([1]; human VICs, 10 days, compound 0.1 μM, Pi alone = 100%) turn out when O=c1c2ccccc2[se]n1-c1ccccc1 [ebselen] was run?
Answer: Its VICs calcium content is 88.8±11%.

Question: And the VICs calcium content ([1]; human VICs, 10 days, compound 1 μM, Pi alone = 100%)?
Answer: The VICs calcium content was 67.6±7.2%.

Question: And the “Effect on calcium content of valvular interstitial cells (in words)” value ([1]; 10 days)?
Answer: The value was “dose-dependently reduces”.

Question: What about the “Effect on calcium content of rat aortas (in words)” value (Rat aortic rings) of the same compound?
Answer: The value was “dose-dependently reduces”.

Question: And the Aortic calcium content (Rat aortic rings; [2])?
Answer: Its Aortic calcium content is 77±8%.

Question: What about the Aortic calcium content (Rat aortic rings; [3]) of the same compound?
Answer: Its Aortic calcium content is 62±7%.
